Laboratory results as given in publication PMC8667942 (Journal of Enzyme Inhibition and Medicinal Chemistry, 2021).

Legend:
Experiment in all cases: Direct CYP inhibition assay, pooled human liver microsomes, LC-MS/MS
Type in all cases: in vitro ADME
CYP2D6 = molecular target: T1, CYP2D6 (Homo sapiens, UniProt P10635); details: pooled HLMs, up to 50 μM, dextromethorphan substrate
T1 construct: from tissue; host or cells: pooled human liver microsomes
Experimental: (§1) Reactions were incubated in eight-well strips placed in an 8 × 12 racks (1.2 ml; VWR, Emeryville, CA). The incubation mixtures (final volume, 200 μL) contained 0.2 mg/mL HLMs, 0.1 M phosphate buffer (pH 7.4), 1 mM NADPH, and various CYP isoform-specific substrate cocktail sets (A set: phenacetin, coumarin, amodiaquine, S-mephenytoin, dextromethorphan, and midazolam; B set: bupropion, tolbutamide, chlorzoxazone, and testosterone). […] Substrates were dissolved and serially diluted with acetonitrile to the required concentration in all experiments. […] The reactions were incubated at 37 °C in a shaking water bath. The reactions were terminated by placing the incubation tubes on ice, adding 200 μL of cold acetonitrile containing carbamazepine (100 nM) and 4-methylumbelliferone (500 nM) as an internal standard after 10 min, and agitating with a vortex mixer before centrifugation. The samples for each enzyme assay were centrifuged at 3,000 × g for 20 min at 4 °C, and supernatants of the individual reaction samples and pooled cocktail incubation samples (A set: B set, 1:1) were analysed using LC-MS/MS.
(§2) Sample injection volume was 10 μL, and separation was performed on an Atlantis™ dC18 column (2.1 × 50 mm i.d., 3 μm; Waters, Milford, MA, USA) and Luna™5u C18 column (2.0 × 30 mm i.d.; Phenomenex, Torrance, CA, USA) with a SecurityGuard™ C18 guard column (2.0 × 4.0 mm i.d.; Phenomenex, Torrance, CA, USA) maintained at 30 °C. The column was pre-equilibrated in 100% v/v solvent A (deionized water containing 0.1% v/v formic acid)/0% v/v solvent B (acetonitrile containing 0.1% v/v formic acid) at a flow rate of 0.4 ml/min. […] Quadrupoles Q1 and Q3 were set on unit resolution. The samples were analysed via multiple reaction monitoring (MRM) and enhanced product ion (EPI) scan mode. The turbo ion spray interface was operated in the positive ion mode at 5,500 V. The operating conditions were determined as follows: ion source temperature, 600 °C; nebulising gas flow, 50 L/min; auxiliary gas flow, 4.0 L/min; curtain gas flow, 20 L/min; collision gas (nitrogen) pressure 3.6 × 10^−5 Torr. Nitrogen gas was used for CUR, CAD, and NEB. The MRM transitions, collision energies and retention time were determined for each metabolite. The samples were analysed via MRM as described in our previous study. The scan dwell time was set at 0.08 s for every channel. Data acquisition and analysis was performed using the Analyst™ software (version 1.5.2; Applied Biosystems, Foster City, CA, USA).

CYP2C8 = molecular target: T2, CYP2C8 (Homo sapiens, UniProt P10632); details: pooled HLMs, up to 50 μM, amodiaquine substrate
T2 construct: from tissue; host or cells: pooled human liver microsomes
T2 sequence (P10632 1-490): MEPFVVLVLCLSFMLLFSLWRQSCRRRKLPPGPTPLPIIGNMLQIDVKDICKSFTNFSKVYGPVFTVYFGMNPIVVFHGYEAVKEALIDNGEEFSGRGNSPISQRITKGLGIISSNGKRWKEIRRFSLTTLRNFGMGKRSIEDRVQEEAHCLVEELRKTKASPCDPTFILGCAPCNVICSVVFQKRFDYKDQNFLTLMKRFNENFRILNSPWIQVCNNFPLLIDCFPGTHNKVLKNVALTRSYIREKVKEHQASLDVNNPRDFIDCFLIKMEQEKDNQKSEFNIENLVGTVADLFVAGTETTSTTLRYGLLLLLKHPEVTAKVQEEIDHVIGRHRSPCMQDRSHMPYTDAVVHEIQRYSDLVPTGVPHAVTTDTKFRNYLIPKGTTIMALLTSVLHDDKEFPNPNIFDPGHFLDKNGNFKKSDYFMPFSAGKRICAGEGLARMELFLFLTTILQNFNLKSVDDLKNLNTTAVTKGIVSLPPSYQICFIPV
Experimental: as §1, §2

CYP2A6 = molecular target: T3, CYP2A6 (Homo sapiens, UniProt P11509); details: pooled HLMs, up to 50 μM, coumarin substrate
T3 construct: from tissue; host or cells: pooled human liver microsomes
T3 sequence (P11509 1-494): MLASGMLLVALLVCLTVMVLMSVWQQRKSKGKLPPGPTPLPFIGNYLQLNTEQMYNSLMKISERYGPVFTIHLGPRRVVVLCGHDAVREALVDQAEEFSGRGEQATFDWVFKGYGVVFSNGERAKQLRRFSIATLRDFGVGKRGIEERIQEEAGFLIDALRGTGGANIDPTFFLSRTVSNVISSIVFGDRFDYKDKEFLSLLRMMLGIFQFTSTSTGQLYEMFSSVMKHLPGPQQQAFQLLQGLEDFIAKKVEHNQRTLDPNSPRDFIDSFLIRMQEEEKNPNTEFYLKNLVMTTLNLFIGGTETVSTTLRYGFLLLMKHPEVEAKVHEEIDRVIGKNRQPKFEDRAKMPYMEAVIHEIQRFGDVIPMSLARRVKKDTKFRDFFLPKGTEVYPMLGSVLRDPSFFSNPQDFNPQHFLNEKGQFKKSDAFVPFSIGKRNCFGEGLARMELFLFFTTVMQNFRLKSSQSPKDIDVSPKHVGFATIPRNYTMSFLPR
Experimental: as §1, §2

T1 sequence (P10635 whole entry): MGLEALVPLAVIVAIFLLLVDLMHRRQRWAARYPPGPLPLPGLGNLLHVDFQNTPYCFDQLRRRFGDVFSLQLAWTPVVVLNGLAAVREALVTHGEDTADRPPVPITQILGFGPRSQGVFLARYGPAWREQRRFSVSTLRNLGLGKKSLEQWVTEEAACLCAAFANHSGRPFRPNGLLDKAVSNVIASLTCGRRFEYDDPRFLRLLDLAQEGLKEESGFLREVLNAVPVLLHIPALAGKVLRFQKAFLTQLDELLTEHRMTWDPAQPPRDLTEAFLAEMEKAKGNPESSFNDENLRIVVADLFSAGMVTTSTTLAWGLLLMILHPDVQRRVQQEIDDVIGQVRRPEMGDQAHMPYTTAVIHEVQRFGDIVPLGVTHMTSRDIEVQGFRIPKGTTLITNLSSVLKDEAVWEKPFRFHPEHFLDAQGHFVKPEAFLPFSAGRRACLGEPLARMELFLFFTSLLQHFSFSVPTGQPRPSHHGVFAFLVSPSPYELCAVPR

O=[N+]([O-])c1ccc(CNc2nc(NCc3cccc(C(F)(F)F)c3)nc3[nH]cnc23)cc1 [TNP, N^6-[(4-nitrophenyl)methyl]-N^2-[[3-(trifluoromethyl)phenyl]methyl]-9H-purine-2,6-diamine]
no inhibitory effect: inhibitory effect on CYP2D6 (CYP2D6) | inhibitory effect on CYP2C8 (CYP2C8) | inhibitory effect on CYP2A6 (CYP2A6)
